Data taken from ChEMBL document CHEMBL1201862, “PubChem BioAssay data set” (2004).
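Interpolation was linear, between the two tested concentrations surrounding the appropriate level; five concentrations were tested over 48 hours in 96-well plates. GI50: concentration for 50% inhibition of growth.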 The source made the active and inactive calls. Rule as the data show it: active = GI50 up to about 1.1 µM and inactive = higher.

Key:
Assay in all cases: NCI anticancer screen, dose series, 48 h
SF-295 = system: SF-295
KM12 = system: KM12
EKVX = system: EKVX
HOP-92 = system: HOP-92
TK-10 = system: TK-10
M14 = system: M14
CCRF-CEM = system: CCRF-CEM
IGROV-1 = system: IGROV-1
HCT-116 = system: HCT-116
SK-MEL-5 = system: SK-MEL-5
LOX IMVI = system: LOX IMVI
Malme-3M = system: Malme-3M
NCI-H23 = system: NCI-H23
SN12C = system: SN12C
HCT-15 = system: HCT-15
SK-OV-3 = system: SK-OV-3
MCF7 = system: MCF7
SF-539 = system: SF-539
RPMI-8226 = system: RPMI-8226
SNB-75 = system: SNB-75

SMILES	GI50 (SF-295)	GI50 (KM12)	GI50 (EKVX)	GI50 (HOP-92)	GI50 (TK-10)	GI50 (M14)	GI50 (CCRF-CEM)	GI50 (IGROV-1)	GI50 (HCT-116)	GI50 (SK-MEL-5)	GI50 (LOX IMVI)	GI50 (Malme-3M)	GI50 (NCI-H23)	GI50 (SN12C)	GI50 (HCT-15)	GI50 (SK-OV-3)	GI50 (MCF7)	GI50 (SF-539)	GI50 (RPMI-8226)	GI50 (SNB-75)
CCOC(=O)C1=C(C)N(c2ccc(OC)cc2)C2(O)C=CC(O)=C3C(=O)c4ccccc4C(=O)C312 (stereo not given)	8.77 µM (inactive)	12.9 µM (inactive)	7.43 µM (inactive)	2.25 µM (inactive)	11 µM (inactive)	9.75 µM (inactive)	3.4 µM (inactive)	3.56 µM (inactive)	11.3 µM (inactive)	11.4 µM (inactive)	7.16 µM (inactive)	< 0.01 µM (active)	16.1 µM (inactive)	14.8 µM (inactive)	6.71 µM	13.4 µM (inactive)	6.03 µM (inactive)	6.92 µM (inactive)	2.44 µM (inactive)	
COc1cccc2c1C(=O)c1c(O)c3c(c(O)c1C2=O)CC(O)(C(=O)CO)CC3OC1CC(N)C(I)C(C)O1 (stereo not given)	2.1 µM (inactive)	> 30.3 µM (inactive)	14.4 µM (inactive)	9.68 µM (inactive)			1.08 µM (active)	1.88 µM (inactive)	0.573 µM (active)	2.64 µM (inactive)	1.45 µM (inactive)	6.05 µM (inactive)	2.28 µM (inactive)	2.38 µM (inactive)	1.83 µM	3.98 µM (inactive)	1.17 µM (inactive)	2.62 µM (inactive)	4.5 µM (inactive)	2.52 µM (inactive)
Nc1nc2cc(COc3ccc(C(=O)O)cc3)ccc2nc1-c1ccccc1	> 10 µM (inactive)	> 10 µM (inactive)	> 10 µM (inactive)	> 10 µM (inactive)	> 10 µM (inactive)	> 10 µM (inactive)	> 10 µM (inactive)	> 10 µM (inactive)		> 10 µM (inactive)	> 10 µM (inactive)		> 10 µM (inactive)	> 10 µM (inactive)	> 10 µM	> 10 µM (inactive)	> 10 µM (inactive)	> 10 µM (inactive)	> 10 µM (inactive)	> 10 µM (inactive)
c1ccc(C(c2ccccc2)[P+](c2ccccc2)(c2ccccc2)c2ccccc2)cc1	1.7 µM (inactive)	0.241 µM (active)	4.7 µM (inactive)	0.543 µM (active)			0.317 µM (active)	0.394 µM (active)	0.326 µM (active)	0.37 µM (active)	0.265 µM (active)	0.726 µM (active)	0.45 µM (active)	0.592 µM (active)	4.62 µM	0.596 µM (active)	0.449 µM (active)	1.27 µM (inactive)	0.226 µM (active)	0.467 µM (active)
CCOC(=O)C1=C(C)N(NC(N)=O)C2(O)CCCC(=O)C12C (stereo not given)	> 100 µM (inactive)	> 100 µM (inactive)		> 100 µM (inactive)	> 100 µM (inactive)	> 100 µM (inactive)		> 100 µM (inactive)	> 10 µM (inactive)	> 100 µM (inactive)	> 100 µM (inactive)	> 100 µM (inactive)	> 100 µM (inactive)	> 100 µM (inactive)	> 100 µM	> 100 µM (inactive)		> 100 µM (inactive)	> 100 µM (inactive)	> 100 µM (inactive)
Cc1cc(N(CCOS(C)(=O)=O)CCOS(C)(=O)=O)ccc1C=O	4.35 µM (inactive)	14.7 µM (inactive)	3.61 µM (inactive)	9.73 µM (inactive)	2.91 µM (inactive)	3.05 µM (inactive)	1.08 µM (active)	11.7 µM (inactive)	28.9 µM (inactive)	7.78 µM (inactive)	6.68 µM (inactive)	7.91 µM (inactive)	3.68 µM (inactive)	1.47 µM (inactive)	13.2 µM		1.22 µM (inactive)	< 0.01 µM (active)	4.02 µM (inactive)	
CSc1nc(SC)c2cnn(CC3CO3)c2n1 (stereo not given)	24.6 µM (inactive)	20.3 µM (inactive)	29.3 µM (inactive)				12.4 µM (inactive)	19.4 µM (inactive)	13.4 µM (inactive)	13.3 µM (inactive)	7.59 µM (inactive)	23.5 µM (inactive)	18.6 µM (inactive)	20.2 µM (inactive)	25.2 µM	30.8 µM (inactive)	9.44 µM (inactive)	19.5 µM (inactive)	35.1 µM (inactive)	17.3 µM (inactive)
O=C(NN1C(=O)C(Cl)C1c1ccc([N+](=O)[O-])cc1)c1ccccc1O (stereo not given)	> 100 µM (inactive)	> 100 µM (inactive)	> 100 µM (inactive)	> 100 µM (inactive)	> 100 µM (inactive)	> 100 µM (inactive)	> 100 µM (inactive)	> 100 µM (inactive)	> 100 µM (inactive)	> 100 µM (inactive)		43 µM (inactive)	> 100 µM (inactive)	> 100 µM (inactive)		> 100 µM (inactive)		> 100 µM (inactive)	> 100 µM (inactive)	51.8 µM (inactive)
CC(=O)NNc1nc(C)c(C(=O)NNC(=O)C(=O)Nc2ccc([N+](=O)[O-])cc2[N+](=O)[O-])s1	> 100 µM (inactive)	> 100 µM (inactive)	35.6 µM (inactive)	79.3 µM (inactive)	> 100 µM (inactive)	> 100 µM (inactive)	22.3 µM (inactive)	> 100 µM (inactive)	> 100 µM (inactive)	> 100 µM (inactive)	> 100 µM (inactive)		> 100 µM (inactive)	> 100 µM (inactive)	> 100 µM	> 100 µM (inactive)		> 100 µM (inactive)	99.8 µM (inactive)	47.5 µM (inactive)
